Reference: the supplement of paper PMC10307832

Key:
Assay in all cases: relative viability (nuclei count vs DMSO), 5 days (fraction); higher = more cells survive
AZD5582 + OSI-027 = compound: C[C@@H](C(=O)N[C@@H](C1CCCCC1)C(=O)N2CCC[C@H]2C(=O)N[C@@H]3[C@@H](CC4=CC=CC=C34)OCC#CC#CCO[C@@H]5CC6=CC=CC=C6[C@@H]5NC(=O)[C@@H]7CCCN7C(=O)[C@H](C8CCCCC8)NC(=O)[C@H](C)NC)NC [AZD5582] + COc1cccc2cc(-c3nc([C@H]4CC[C@H](C(=O)O)CC4)n4ncnc(N)c34)[nH]c12 [OSI-027] (partner 0.5 µM)
Outline: (§1)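 Dosing by pin tool came one day after lung cancer cell lines were seeded in 1536-well plates, using either one drug or a fixed anchor-drug dose plus five library-drug doses (not always all listed) in √10 steps. After 5 days, nuclei were counted on 4× images. Relative viability is treated-well nuclei count divided by vehicle-well nuclei count, and values are medians of duplicate plates.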

AZD5582 + Tozasertib = compound: C[C@@H](C(=O)N[C@@H](C1CCCCC1)C(=O)N2CCC[C@H]2C(=O)N[C@@H]3[C@@H](CC4=CC=CC=C34)OCC#CC#CCO[C@@H]5CC6=CC=CC=C6[C@@H]5NC(=O)[C@@H]7CCCN7C(=O)[C@H](C8CCCCC8)NC(=O)[C@H](C)NC)NC [AZD5582] + Cc1cc(Nc2cc(N3CCN(C)CC3)nc(Sc3ccc(NC(=O)C4CC4)cc3)n2)n[nH]1 [Tozasertib] (partner 0.1 µM)
Outline: as §1

AZD5582 + AZD7762 = compound: C[C@@H](C(=O)N[C@@H](C1CCCCC1)C(=O)N2CCC[C@H]2C(=O)N[C@@H]3[C@@H](CC4=CC=CC=C34)OCC#CC#CCO[C@@H]5CC6=CC=CC=C6[C@@H]5NC(=O)[C@@H]7CCCN7C(=O)[C@H](C8CCCCC8)NC(=O)[C@H](C)NC)NC [AZD5582] + NC(=O)Nc1cc(-c2cccc(F)c2)sc1C(=O)N[C@H]1CCCNC1 [AZD7762] (partner 0.2 µM)
Outline: as §1

Temozolomide + Alpelisib = compound: Cn1nnc2c(C(N)=O)ncn2c1=O [Temozolomide] + Cc1nc(NC(=O)N2CCC[C@H]2C(N)=O)sc1-c1ccnc(C(C)(C)C(F)(F)F)c1 [Alpelisib] (partner 2 µM)
Outline: as §1

Cell Line | relative viability (AZD5582 + OSI-027; first compound 0.001581 µM) | relative viability (AZD5582 + OSI-027; first compound 0.005 µM) | relative viability (AZD5582 + OSI-027; first compound 0.01581 µM) | relative viability (AZD5582 + OSI-027; first compound 0.05 µM) | relative viability (AZD5582 + Tozasertib; first compound 0.001581 µM) | relative viability (AZD5582 + Tozasertib; first compound 0.005 µM) | relative viability (AZD5582 + Tozasertib; first compound 0.01581 µM) | relative viability (AZD5582 + Tozasertib; first compound 0.05 µM) | relative viability (AZD5582 + AZD7762; first compound 0.001581 µM) | relative viability (AZD5582 + AZD7762; first compound 0.005 µM) | relative viability (AZD5582 + AZD7762; first compound 0.01581 µM) | relative viability (AZD5582 + AZD7762; first compound 0.05 µM) | relative viability (Temozolomide + Alpelisib; first compound 0.2 µM) | relative viability (Temozolomide + Alpelisib; first compound 0.6325 µM) | relative viability (Temozolomide + Alpelisib; first compound 2 µM) | relative viability (Temozolomide + Alpelisib; first compound 6.325 µM) | relative viability (Temozolomide + Alpelisib; first compound 20 µM)
201T | 0.721 | 0.831 | 0.675 | 0.492 | 1.01 | 1.07 | 0.961 | 1.13 | 0.479 | 0.579 | 0.556 | 0.447 | 0.977 | 1.05 | 1.04 | 1.04 | 0.985
SK-LU-1 | 0.288 | 0.273 | 0.344 | 0.253 | 0.229 | 0.205 | 0.343 | 0.13 |  |  |  |  | 1.43 | 0.976 | 0.901 | 0.525 | 0.394
NCI-H522 | 0.671 | 0.711 | 0.861 | 0.595 | 0.592 | 0.491 | 0.594 | 0.524 | 0.982 | 0.887 | 0.885 | 0.645 |  |  |  |  | 
IA-LM |  |  |  |  |  |  |  |  |  |  |  |  | 0.956 | 0.716 | 0.811 | 0.716 | 0.711
NCI-H1299 |  |  |  |  |  |  |  |  |  |  |  |  | 1.11 | 1.11 | 1.14 | 1.04 | 1.05
NCI-H1623 | 0.422 | 0.407 | 0.457 | 0.432 | 0.441 | 0.455 | 0.444 | 0.432 |  |  |  |  |  |  |  |  | 
COR-L 105 | 0.716 | 0.984 | 0.517 | 0.671 | 0.373 | 0.404 | 0.282 | 0.418 |  |  |  |  | 0.915 | 1.03 | 1.15 | 1.07 | 1.02
NCI-H2228 | 0.524 | 0.749 | 0.62 | 0.237 | 0.191 | 0.27 | 0.333 | 0.161 |  |  |  |  | 0.77 | 0.721 | 0.516 | 0.813 | 0.679
NCI-H1563 | 0.688 | 0.709 | 0.731 | 0.679 |  |  |  |  |  |  |  |  | 0.957 | 1 | 1.01 | 0.861 | 0.94
NCI-H661 | 0.6 | 0.725 | 0.722 | 0.676 | 0.361 | 0.368 | 0.389 | 0.358 |  |  |  |  |  | 0.618 | 0.759 | 0.714 | 0.545
NCI-H1792 | 0.679 | 0.872 | 0.73 | 1.06 |  |  |  |  | 0.647 | 0.625 | 0.585 | 1.02 | 0.535 | 0.749 | 0.677 | 0.651 | 0.791
NCI-H2023 | 0.286 | 0.44 | 0.374 | 0.368 | 0.209 | 0.345 | 0.499 | 0.305 |  |  |  |  | 0.544 | 0.608 | 0.531 | 0.624 | 0.596
SW 1573 | 0.72 | 0.66 | 0.662 | 0.862 | 0.188 | 0.192 | 0.164 | 0.255 |  |  |  |  | 0.714 | 0.783 | 0.809 | 0.69 | 0.8
NCI-H1648 |  | 0.266 | 0.228 | 0.301 |  | 0.549 | 0.37 | 0.615 | 0.462 | 0.649 |  | 0.626 |  |  |  |  | 
COR-L23 | 0.799 | 0.721 | 0.768 | 0.756 | 0.187 | 0.246 | 0.257 | 0.241 |  |  |  |  | 0.957 | 0.851 | 0.859 | 0.752 | 0.662
ChaGo-K-1 | 0.497 | 0.596 | 0.57 | 0.545 | 0.242 | 0.231 | 0.208 | 0.215 | 0.794 | 0.874 | 0.816 | 0.837 |  |  |  |  | 
Calu-6 |  |  |  |  |  |  |  |  |  |  |  |  | 1.03 | 0.989 | 0.984 | 0.973 | 0.977
NCI-H520 | 0.261 | 0.21 | 0.224 | 0.269 | 0.441 | 0.394 | 0.544 | 0.51 |  |  |  |  | 1.01 | 1.12 | 1.05 | 0.893 | 1.01
NCI-H2342 | 0.518 | 0.587 | 0.509 | 0.659 | 0.493 | 0.585 | 0.43 | 0.542 | 0.429 | 0.43 | 0.49 | 0.556 |  |  |  |  | 
NCI-H1650 | 0.599 | 0.859 | 0.547 | 0.564 | 0.358 | 0.326 | 0.389 | 0.304 |  |  |  |  |  |  |  |  | 
EBC-1 |  |  |  |  |  |  |  |  |  |  |  |  | 0.982 | 0.812 | 0.918 | 0.769 | 0.871
UMC-11 | 0.469 | 0.53 | 0.476 | 0.454 | 0.207 | 0.203 | 0.196 | 0.203 |  |  |  |  | 1.08 | 0.829 | 1.02 | 0.934 | 0.518
NCI-H2009 | 0.536 | 0.73 | 0.448 | 0.48 | 0.715 | 0.774 | 0.761 | 0.788 |  |  |  |  | 1.15 | 1.17 | 1.21 | 1.11 | 1.24
A549 |  |  |  |  |  |  |  |  |  |  |  |  | 0.828 | 0.738 | 0.69 | 0.738 | 0.773
SW 900 | 0.412 | 0.559 | 0.518 | 0.571 | 0.481 | 0.365 | 0.722 | 0.468 | 0.539 | 0.491 | 0.544 | 0.31 |  |  |  |  | 
